Measurements taken from publication PMC12702776 (Cancer Gene Therapy, 2025).

Experiments:
[1] = molecular target: T1, DOCK2 (Homo sapiens, UniProt Q92608); experiment: Active GTPase pull-down assay in IGR1 melanoma cells treated with DOCK2 inhibitor; format: cell-based; conditions: serum-stimulated IGR1 cells, 25 µM and 100 µM
T1 construct: endogenous in cells; host or cells: IGR1 human melanoma cells
Experimental: HEK-293T and IGR1 human melanoma cells were cultured under serum-stimulated and serum-starved conditions in DMEM supplemented with 10% FBS and 1% penicillin/streptomycin. The HEK-293T cells were then transfected with RAC1 constructs containing N-terminal 10×His–triple FLAG tags using TurboFect™ (Thermo Fisher Scientific), according to the manufacturer’s protocol. The HEK-293T cells were cultured and harvested under serum-stimulated or serum-starved conditions without additional treatment. IGR1 cells, in contrast, were treated with the DOCK2 inhibitor CPYPP (MedChemExpress) at 25 µM and 100 µM concentrations, with 0.5% DMSO as a vehicle control. After treatment, cells were harvested and lysed, and protein concentrations were determined using the Bradford assay. Detailed protocols, including buffer compositions, are provided in the Supplementary Information.
Experiments were conducted under both serum-stimulated and serum-starved conditions, as described previously. […] After incubation, the beads were washed and analyzed by SDS-PAGE followed by immunoblotting. […]
Cell culture, transfection, and treatment. […] The resulting supernatants were collected for downstream applications, and protein concentrations were determined using the Bradford assay.
Active GTPase pull-down assay. […] Samples were analyzed by SDS-PAGE and immunoblotting […]

[2] = system: DHR2 domain of DOCK2; parameters: method as in PMID 22520755; conditions: cited from earlier work
[3] = system: IGR1 cells; conditions: cited from earlier work
[4] = molecular target: T2, RAC1^F28L (Homo sapiens, UniProt P63000, F28L); experiment: Nucleotide-binding assay (stopped-flow fluorimetry); conditions: faster than RAC1 WT
T2 construct: GST (N); made in house; host or cells: Escherichia coli
Experimental: (§1) The nucleotide-binding properties of RAC1 GTPases were assessed by stopped-flow fluorimetry, as described. Nucleotide association and dissociation rates were measured using fluorescent nucleotides (mdGDP and mGppNHp) and varying RAC1 concentrations. Association (kon) and dissociation (koff) rate constants were determined, and equilibrium dissociation constants (Kd) were calculated as described in Box 2. Detailed procedures are provided in the Supplementary Materials.
(§2) Nucleotide-binding assay. The nucleotide-binding properties of the RAC1 GTPases were assessed using a stopped-flow fluorimetry approach, as described (10). ucleotide association was measured with 0.1 µM fluorescently labeled nucleotides, such as mdGDP and mGppNHp, and varying concentrations of nucleotide-free RAC1 proteins (0.25–5 μM). Measurements were conducted in a buffer containing 30 mM Tris-HCl, pH 7.5, 10 mM KH2PO4/K2HPO4, 5 mM MgCl2, and 3 mM DTT, at 25 °C. The association rate constant (kon) was determined by plotting the observed rate constants (kobs) against the concentration of nucleotide-free RAC1 and analyzing the slope via linear regression using Origin software. The dissociation rate constant (koff) of the fluorescent nucleotide from RAC1 proteins (0.1 µM) was measured by adding a 200-fold excess of the non-fluorescent nucleotide (20 µM). The affinity of RAC1 proteins for GDP and GppNHp was calculated by dividing koff by kon, yielding the equilibrium dissociation constants (Kd), as defined in Box 2 of the main text.

[5] = molecular target: T3, RAC1^WT (Homo sapiens, UniProt P63000); experiment: as above
T3 construct: GST (N); made in house; host or cells: Escherichia coli
Experimental: as §1, §2

[6] = molecular target: T4, RAC1^P29S (Homo sapiens, UniProt P63000, P29S); experiment: as above; conditions: RAC1 P29S compared to RAC1 WT
T4 construct: GST (N); made in house; host or cells: Escherichia coli
Experimental: as §1, §2

[7] = molecular target: T5, RAC1^T17N (Homo sapiens, UniProt P63000, T17N); experiment: as above
T5 construct: GST (N); made in house; host or cells: Escherichia coli
Experimental: as §1, §2

T1 sequence (Q92608 whole entry): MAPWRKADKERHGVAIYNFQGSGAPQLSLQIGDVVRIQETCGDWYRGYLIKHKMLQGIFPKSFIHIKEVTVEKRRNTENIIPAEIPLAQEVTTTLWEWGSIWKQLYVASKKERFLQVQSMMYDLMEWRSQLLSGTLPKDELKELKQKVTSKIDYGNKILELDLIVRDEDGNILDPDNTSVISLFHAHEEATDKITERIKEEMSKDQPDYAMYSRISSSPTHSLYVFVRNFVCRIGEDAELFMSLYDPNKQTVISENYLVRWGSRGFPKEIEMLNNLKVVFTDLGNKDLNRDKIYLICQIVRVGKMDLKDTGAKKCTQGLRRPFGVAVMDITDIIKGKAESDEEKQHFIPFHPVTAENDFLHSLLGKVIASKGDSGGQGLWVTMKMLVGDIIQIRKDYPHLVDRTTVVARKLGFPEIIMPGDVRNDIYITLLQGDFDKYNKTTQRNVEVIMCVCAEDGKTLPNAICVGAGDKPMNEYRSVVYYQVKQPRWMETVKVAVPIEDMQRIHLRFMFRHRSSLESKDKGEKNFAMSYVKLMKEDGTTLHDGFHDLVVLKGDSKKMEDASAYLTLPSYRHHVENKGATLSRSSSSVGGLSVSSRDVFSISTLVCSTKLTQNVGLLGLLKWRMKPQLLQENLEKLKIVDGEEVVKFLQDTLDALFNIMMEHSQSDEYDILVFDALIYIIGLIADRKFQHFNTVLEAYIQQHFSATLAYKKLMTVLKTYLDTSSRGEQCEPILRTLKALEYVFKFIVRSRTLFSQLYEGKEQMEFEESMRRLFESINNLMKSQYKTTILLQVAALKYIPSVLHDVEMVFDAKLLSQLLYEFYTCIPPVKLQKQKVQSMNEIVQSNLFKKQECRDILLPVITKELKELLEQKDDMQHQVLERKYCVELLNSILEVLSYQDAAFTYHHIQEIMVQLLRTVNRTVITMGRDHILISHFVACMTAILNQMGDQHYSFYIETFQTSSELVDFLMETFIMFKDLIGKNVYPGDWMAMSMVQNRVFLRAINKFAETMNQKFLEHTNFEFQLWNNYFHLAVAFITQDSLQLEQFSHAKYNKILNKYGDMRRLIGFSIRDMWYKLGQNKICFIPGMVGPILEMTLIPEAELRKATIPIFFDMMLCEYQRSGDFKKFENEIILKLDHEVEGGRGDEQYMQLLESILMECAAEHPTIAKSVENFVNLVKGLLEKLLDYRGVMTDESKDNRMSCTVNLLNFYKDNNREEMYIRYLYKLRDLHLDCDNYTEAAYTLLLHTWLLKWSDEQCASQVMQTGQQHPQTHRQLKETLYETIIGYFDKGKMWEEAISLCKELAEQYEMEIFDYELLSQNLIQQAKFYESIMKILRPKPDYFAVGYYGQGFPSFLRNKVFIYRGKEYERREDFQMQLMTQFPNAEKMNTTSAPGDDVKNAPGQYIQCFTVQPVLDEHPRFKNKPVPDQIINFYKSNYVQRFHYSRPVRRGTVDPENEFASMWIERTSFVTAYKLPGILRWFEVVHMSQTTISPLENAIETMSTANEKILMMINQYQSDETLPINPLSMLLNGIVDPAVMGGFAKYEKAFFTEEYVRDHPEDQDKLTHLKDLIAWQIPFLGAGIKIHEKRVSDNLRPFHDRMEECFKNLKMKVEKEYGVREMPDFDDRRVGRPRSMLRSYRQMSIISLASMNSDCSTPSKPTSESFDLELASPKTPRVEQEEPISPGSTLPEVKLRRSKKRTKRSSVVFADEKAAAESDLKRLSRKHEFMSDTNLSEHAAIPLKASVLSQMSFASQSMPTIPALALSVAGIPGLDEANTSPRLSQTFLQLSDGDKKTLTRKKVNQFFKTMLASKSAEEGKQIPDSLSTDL

Molecule	sensitivity of IGR1 cells (RAC1^P29S, BRAF^V600K) [3]	Kd [5]	Kd, lower affinity P29S vs WT [6]	kon, reduction P29S vs WT [6]	also measured
O=C1NN(c2ccccc2)C(=O)/C1=C/C=C/c1ccccc1Cl [CPYPP]	–	–	–	–	effect on RAC1^P29S activation [1]: reduced RAC1^P29S activation in a dose-dependent manner; effect on DOCK2 catalytic activity [2]: reversibly blocking its catalytic activity
CC(C)(C)c1nc(-c2cccc(NS(=O)(=O)c3c(F)cccc3F)c2F)c(-c2ccnc(N)n2)s1 [dabrafenib]	reduced sensitivity	–	–	–	–
CNc1ccccc1C(=O)O[C@H]1C[C@H](n2cnc3c(=O)[nH]c(N)nc32)O[C@@H]1COP(=O)(O)OP(=O)(O)O [mdGDP, methylanthraniloyl-2'-deoxy-guanosine 5′-diphosphate]	–	0.3 nM	147 fold	14 fold	intrinsic nucleotide dissociation rate, F28L vs WT [4]: 20 fold; koff, increase P29S vs WT [6]: 10 fold; decrease in binding affinity, T17N vs WT ([7]; RAC1 T17N compared to RAC1 WT): 1346 fold; dissociation rate, T17N vs WT ([7]; higher than RAC1 WT): 410 fold
CCCS(=O)(=O)Nc1ccc(F)c(C(=O)c2c[nH]c3ncc(-c4ccc(Cl)cc4)cc23)c1F [vemurafenib]	reduced sensitivity	–	–	–	–
methylanthraniloyl guanosine 5'-[beta,gamma-imido]triphosphate [mGppNHp]	–	0.6 nM	289 fold	27 fold	–
